Data: patent publication US8927588B2, “Imidazole carbonyl compound” (Daiichi Sankyo Company, Limited, priority 2007, dated 2015)
Values after ≈ are worked out from the molar mass of the structure shown. Where two headings read alike, the source gives them in different places.

Tests used:
[1] = target: ParE of Haemophilus influenzae (Haemophilus influenzae, UniProt P43703); experiment: ATP hydrolysis inhibition assay (pyruvate kinase/lactate dehydrogenase coupled), ParE of Haemophilus influenzae; type: biochemical
ParE of Haemophilus influenzae, sequence (P43703 whole entry): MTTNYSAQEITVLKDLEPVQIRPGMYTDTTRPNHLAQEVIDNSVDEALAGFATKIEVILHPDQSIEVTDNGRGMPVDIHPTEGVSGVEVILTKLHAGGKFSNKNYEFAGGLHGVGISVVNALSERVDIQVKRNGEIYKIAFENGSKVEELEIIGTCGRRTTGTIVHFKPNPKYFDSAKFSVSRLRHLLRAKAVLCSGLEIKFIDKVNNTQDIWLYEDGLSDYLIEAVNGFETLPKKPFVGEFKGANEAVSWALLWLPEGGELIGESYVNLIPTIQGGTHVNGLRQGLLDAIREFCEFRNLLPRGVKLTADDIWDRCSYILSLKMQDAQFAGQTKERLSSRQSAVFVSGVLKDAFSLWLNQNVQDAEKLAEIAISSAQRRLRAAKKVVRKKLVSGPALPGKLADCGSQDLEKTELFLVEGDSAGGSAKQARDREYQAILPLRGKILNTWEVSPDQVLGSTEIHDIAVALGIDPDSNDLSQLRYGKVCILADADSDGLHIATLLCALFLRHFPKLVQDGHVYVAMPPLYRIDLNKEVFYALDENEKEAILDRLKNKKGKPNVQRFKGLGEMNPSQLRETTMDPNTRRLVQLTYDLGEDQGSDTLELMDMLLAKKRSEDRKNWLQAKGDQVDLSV
Description: The ATP hydrolysis activity of GyrB and ParE was determined by correlating it with ADP production and NADH oxidation mediated by pyruvate kinase/lactate dehydrogenase. This method has been previously reported (Tamura, J. K. and Gellert, M. 1990, J. Biol. Chem. 265:21342-21349).
The ATP hydrolysis assay was carried out in a buffer solution containing final concentrations of 100 mM Tris-HCl (pH 7.5), 150 mM KCl, 1.5 mM MgCl2, 0.4 mM nicotinamide adenine dinucleotide (NADH), 2.5 mM phosphoenolpyruvate, 1 mM DTT, 15 U/ml pyruvate kinase, 10.5 U/ml lactate dehydrogenase and 1 mU/ml enzyme (GyrB or ParE of Streptococcus pneumoniae or Haemophilus influenzae) (provided that the concentration of KCl was 25 mM and the concentration of MgCl2 was 10 mM in the case of ParE of Haemophilus influenzae). A solution of the test compound serially four-fold diluted in DMSO:MeOH (7:3) was added at a final concentration of 5% (v/v). […] ATP was added at a final concentration of 1 mM; after mixing, the absorbance at 340 nm (amount of NADH) was determined (provided that the final ATP concentration was 0.3 mM in the case of ParE of Haemophilus influenzae). The reaction solution was incubated at 30° C. for two hours, and then the absorbance at 340 nm was determined. The ATP hydrolysis inhibition rate (%) was calculated from the difference in absorbance before and after the incubation (amount of NADH oxidized). […]

Haemophilus influenzae = experiment: Sensitivity of bacteria, broth microdilution method (MIC); type: cell-based; details: medium obtained by mixing hemophilus test medium with human serum at a ratio of 1:1
Description: The antibacterial activity of the compounds of the present invention was tested by sensitivity tests by the broth microdilution method. The assay was carried out according to the latest CLSI guidelines for managing the procedures of sensitivity tests: “M7-A7 Methods for Dilution Antimicrobial Susceptibility Tests for Bacteria That Grow Aerobically; Approved Standard—Seventh Edition (2006)”. Test strains were grown on appropriate agar plates overnight. A broth containing the test compound serially two-fold diluted was dispensed at 100 μL to each well of a 96-well microplate. As a growth control, a well with a broth not containing the test compound was also prepared. Colonies grown on the plates were suspended in saline, adjusted to 0.5 McFarland (OD625=0.08 to 0.10) using a colorimeter, and then diluted ten-fold with saline. The bacterial suspension was inoculated at 4 μL into each well of the microplate using a bacterial suspension inoculation apparatus. The inoculated microplate was incubated at 35° C. overnight (about 20 hours). The growth condition was observed by the naked eye, and the minimum concentration to inhibit bacterial proliferation was defined as a minimum inhibitory concentration (MIC).

HeLa cell proliferation = experiment: Cytotoxicity test, HeLa cell proliferation (MTS-PMS); type: cell-based; details: human, HeLa cells, 48 hours incubation, read-out: IC50 (cytotoxicity, proliferation inhibition)
Description: 50 μL of a HeLa cell solution containing 80000 cells/mL was inoculated into each well of a 96-well microplate, and the mixture was incubated at 37° C. in a 5% carbon dioxide incubator for 24 hours. Thereafter, a medium containing the test compound serially four-fold diluted was added at 50 μL to each well, and the mixture was incubated at 37° C. in a 5% carbon dioxide incubator for 48 hours. As a control with an inhibition rate of 0%, a well not containing the test compound was also prepared. Following washing with phosphate buffered saline, a MTS [3-(4,5-dimethylthiazol-2-yl)-5-(3-carboxymethoxyphenyl)-2-(4-sulphophenyl)-2H-tetrazolium, inner salt]-PMS (phenazine methosulfate) coloring reagent solution was added, and the mixture was allowed to stand at 37° C. in a 5% carbon dioxide incubator for 1.5 hours. Thereafter, the absorbance at 490 nm was determined. The 50% inhibition concentration (IC50) was calculated from the proliferation inhibition rate (%) in the presence of four different concentrations of the test compound.

[2] = Solubility in water (JP1 fluid / JP2 fluid); type: physicochemical; details: thermodynamic from solid, room temperature

Compound: CO[C@H]1CN(c2nc3cccc(C(=O)O)c3s2)CC[C@H]1NC(=O)c1nc(Cl)c(C)[nH]1 (racemic) [Example 8, cis(±)-2-(4-{[(4-Chloro-5-methyl-1H-imidazol-2-yl)carbonyl]amino}-3-methoxypiperidin-1-yl)-1,3-benzothiazole-7-carboxylic acid]
- IC50 [1]: 131 nM
- MIC (Haemophilus influenzae): 4 µg/mL
- IC50 at 48 h (HeLa cell proliferation): > 200 µg/mL
- solubility ([2]; pH 1.2, simulated gastric fluid, 1st fluid for the disintegration test of the Japanese Pharmacopoeia, read-out: solubility in JP1 fluid): 100 µg/mL (≈ 222 µM)
- solubility ([2]; pH 6.8, aqueous buffer, 2nd fluid for the disintegration test of the Japanese Pharmacopoeia, read-out: solubility in JP2 fluid): 720 µg/mL (≈ 1600 µM)
